Laboratory results taken from patent US20260335323A1, “CHIMERIC MOLECULE” (UCL Business Ltd, priority 2023, published 2026).

Target: T1, ULK1 (Homo sapiens, UniProt O75385)
T1 sequence (O75385 1-1050): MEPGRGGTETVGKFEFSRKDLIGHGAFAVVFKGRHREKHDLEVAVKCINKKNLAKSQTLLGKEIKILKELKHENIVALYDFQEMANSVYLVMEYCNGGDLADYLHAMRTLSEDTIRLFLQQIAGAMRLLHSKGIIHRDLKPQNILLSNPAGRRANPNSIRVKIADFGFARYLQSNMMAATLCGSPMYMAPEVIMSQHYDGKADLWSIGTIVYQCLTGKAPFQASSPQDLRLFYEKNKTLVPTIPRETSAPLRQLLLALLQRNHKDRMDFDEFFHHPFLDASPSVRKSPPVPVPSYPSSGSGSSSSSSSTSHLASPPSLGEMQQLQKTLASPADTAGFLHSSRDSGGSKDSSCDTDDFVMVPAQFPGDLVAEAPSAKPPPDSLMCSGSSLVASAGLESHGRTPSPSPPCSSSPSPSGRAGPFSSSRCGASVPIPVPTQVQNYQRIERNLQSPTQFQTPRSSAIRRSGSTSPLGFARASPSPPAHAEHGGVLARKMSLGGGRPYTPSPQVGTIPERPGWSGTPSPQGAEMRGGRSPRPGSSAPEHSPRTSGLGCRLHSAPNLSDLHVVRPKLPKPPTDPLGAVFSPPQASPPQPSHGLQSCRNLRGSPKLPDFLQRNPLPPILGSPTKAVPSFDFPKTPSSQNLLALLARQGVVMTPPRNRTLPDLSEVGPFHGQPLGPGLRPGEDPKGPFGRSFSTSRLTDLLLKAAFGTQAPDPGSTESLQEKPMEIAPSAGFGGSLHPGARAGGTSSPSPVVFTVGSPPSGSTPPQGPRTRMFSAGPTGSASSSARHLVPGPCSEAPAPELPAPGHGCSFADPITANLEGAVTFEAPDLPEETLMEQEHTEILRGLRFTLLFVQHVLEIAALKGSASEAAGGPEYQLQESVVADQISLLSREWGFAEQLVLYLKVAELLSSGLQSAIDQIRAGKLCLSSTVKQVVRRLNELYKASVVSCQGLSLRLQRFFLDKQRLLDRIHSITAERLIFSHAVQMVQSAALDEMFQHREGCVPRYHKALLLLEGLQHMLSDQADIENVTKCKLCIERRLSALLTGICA
Experiment: Western blot, phosphorylation of ULK1 at Ser317 in PANC-1 cells
Format: cell-based
Parameters: pSer317 blot or TOM20 co-localisation
From the text: FIG. 2. BL-918 is a potent ULK1 agonist and autophagy inducer (A) Representative images of PANC-1 cells stably expressing the mCherry-EGFP-LC3 tandem reporter treated with ULK1 agonists. Nuclei stained with Hoechst 33342, autophagosomes are shown in the EGFP channel and autolysosomes in the mCherry channel. Fold change in the number of autophagosomes (B) and autolysosomes (C) puncta in ULK1 agonist treated cells. (D) Western blot of PANC-1 cells treated with DMSO, bafilomycin and ULK1 agonists±bafilomycin; probed for p-ULK1 (S317), ULK1, p62, b-actin, LC3-I and LC3-II. Quantifications of western blot for changes in the ratio of p-ULK1 (S317):ULK1 (E), p62 (F) and LC31:LC3II (G). All data shown are mean±SEM, n=3, *p<0.05, ** p<0.01, one-way ANOVA with Dunnett's multiple comparisons test.
FIG. 4. ULKTACs retain ULK1 agonist activity and subsequent induction of autophagy (A) Western blot of PANC-1 cells treated with ULKTACs±bafilomycin, probed for p-ULK1 (S317), ULK1, p62, b-Actin, LC31 and LC3II. Quantifications of (A) for the pULK1:ULK1 ratio (B) LC3I:LC3II ratio (C) and changes in p62 (D). (E) Representative images of PANC-1 cells stably expressing the mCherry-EGFP-LC3 tandem reporter treated with ULKTACs w/or w/o bafilomycin. Nuclei stained with Hoechst 33342, autophagosomes are shown in the EGFP channel and autolysosomes in the mCherry channel. Fold change in the number of autophagosome (F) and autolysosome (G) puncta. Data shown are mean±SEM, *p<0.05, ** p<0.01, *** p<0.001, one-way ANOVA, Dunnett's multiple comparisons test.
Cells were homogenised in protein lysis buffer consisting of 0.1 M Tris pH 8.0, 0.1 M NaCl, 5% glycerol, IGEPAL® CA-630 (#18896. Sigma-Aldrich) and 5 mM EDTA, 0.1 M N-ethyl maleimide (ThermoFisher, #23030) and protease inhibitor (Cell Signalling Technologies, #5871). Protein concentrations were determined using the BCA assay to ensure equal loading. […] The membranes were immunoblotted with primary antibodies, overnight at 4° C. ULK1 (D8H5) Rabbit mAb (#0854) [1:1000], Phospho-ULK1 (Ser 317) Rabbit antibody (#37762) [1:1000], LC3B Rabbit antibody (#2775) [1:1000], TOM20 (D8T4N) Rabbit mAb (#42406) [1:1000] and, Phospho-Ubiquitin (Ser 65) (E2J6T) Rabbit mAb (#62082) [1:500] were obtained from Cell Signalling Technologies. Recombinant Anti-Vinculin Rabbit antibody (EPR8185) (#ab129002) [1:5000] and Anti-Mitofusin2 mouse antibody (6A8) (#ab56889) [1:1000] were purchased from Abcam. […]
Membranes were then incubated with horseradish peroxidase (HRP)-conjugated secondary antibodies (Rabbit #7074 and Mouse #7076) purchased from Cell Signalling Technologies for 1 hour and the HRP signal was detected using EZ-ECL Enhanced Chemiluminescence Detection Kit for HRP (#20-500-500, Sartorius), and imaged with an Alliance Q9 Advanced (UVITec). […]

phosphorylation of ULK1 at Ser317	activation of ULK1 and autophagy (overall)	SMILES
strong increase in phospho-Ser317 levels	–	O=C(Nc1cc(C(F)(F)F)cc(C(F)(F)F)c1)N[C@@H](C(=O)Nc1ccc(F)cc1F)c1ccc(OCc2cn(CCCCCCNC(=O)C(=O)c3c(-c4ccccc4)[nH]c4ccccc34)nn2)cc1 [NZ-66, (R)-2-(3-(3,5-bis(trifluoromethyl)phenyl)ureido)-N-(2,4-difluorophenyl)-2-(4-((1-(6-(2-oxo-2-(2-phenyl-1H-indol-3-yl)acetamido)hexyl)-1H-1,2,3-triazol-4-yl)methoxy)phenyl) acetamide]
strong increase in phospho-Ser317 levels	–	O=C(Nc1cc(C(F)(F)F)cc(C(F)(F)F)c1)N[C@@H](C(=O)Nc1ccc(F)cc1F)c1ccc(OCc2cn(CCOCCOCCNC(=O)C(=O)c3c(-c4ccccc4)[nH]c4ccccc34)nn2)cc1 [NZ-65, (R)-2-(3-(3,5-bis(trifluoromethyl)phenyl)ureido)-N-(2,4-difluorophenyl)-2-(4-((1-(2-(2-(2-(2-oxo-2-(2-phenyl-1H-indol-3-yl)acetamido)ethoxy)ethoxy)ethyl)-1H-1,2,3-triazol-4-yl)methoxy)phenyl) acetamide]

SMILES	phosphorylation of ULK1 at Ser317	activation of ULK1 and autophagy (overall)
O=C(Nc1ccc(F)cc1F)[C@H](NC(=S)Nc1cc(C(F)(F)F)cc(C(F)(F)F)c1)c1ccccc1 [BL-918, reference compound]	induction of phosphorylation of ULK1 at Ser317	potent activator of ULK1 and autophagy
